These results are taken from US10487092B2, “Pyrazolopyridinamines as MKNK1 and MKNK2 inhibitors” (BAYER PHARMA AKTIENGESELLSCHAFT, priority 2014, dated 2019).

Sequence of human full-length MKNK1 (Q9BUB5 other isoform, or with tags, fused parts or gaps T344D): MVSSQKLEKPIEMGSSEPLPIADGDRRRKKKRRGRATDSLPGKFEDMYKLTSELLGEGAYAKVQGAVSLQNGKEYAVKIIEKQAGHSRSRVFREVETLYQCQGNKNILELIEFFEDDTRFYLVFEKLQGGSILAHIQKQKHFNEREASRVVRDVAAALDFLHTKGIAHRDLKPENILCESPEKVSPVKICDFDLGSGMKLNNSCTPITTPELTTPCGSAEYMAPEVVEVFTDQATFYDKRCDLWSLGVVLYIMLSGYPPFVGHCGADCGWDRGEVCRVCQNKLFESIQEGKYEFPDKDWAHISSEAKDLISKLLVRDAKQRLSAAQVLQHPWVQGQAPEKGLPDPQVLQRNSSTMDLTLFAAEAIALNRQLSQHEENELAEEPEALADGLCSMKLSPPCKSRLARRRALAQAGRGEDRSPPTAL

This assay concerns the target human full-length MKNK1 (Homo sapiens (Human), UniProt Q9BUB5, T344D). Briefly: MKNK1 kinase high ATP assay (TR-FRET). It counts as biochemical. Conditions: high ATP (2 mM), 15 min preincubation with enzyme; read-out: MKNK1 IC50. As to the method:
MKNK1 Kinase High ATP Assay
MKNK1-inhibitory activity at high ATP of compounds of the present invention after their preincubation with MKNK1 was quantified employing the TR-FRET-based MKNK1 high ATP assay as described in the following paragraphs.
A recombinant fusion protein of Glutathione-S-Transferase (GST, N-terminally) and human full-length MKNK1 (amino acids 1-424 and T344D of accession number BAA 19885.1), expressed in insect cells using baculovirus expression system and purified via glutathione sepharose affinity chromatography, was purchased from Carna Biosciences (product no 02-145) and used as enzyme. As substrate for the kinase reaction the biotinylated peptide biotin-Ahx-IKKRKLTRRKSLKG (SEQ ID NO: 1, C-terminus in amide form) was used, which can be purchased e.g. from the company Biosyntan (Berlin-Buch, Germany).
For the assay 50 nL of a 100 fold concentrated solution of the test compound in DMSO was pipetted into a black low volume 384 well microtiter plate (Greiner Bio-One, Frickenhausen, Germany), 2 μL of a solution of MKNK1 in aqueous assay buffer [50 mM HEPES pH 7.5, 5 mM MgCl2, 1.0 mM dithiothreitol, 0.005% (v/v) Nonidet-P40 (Sigma)] was added and the mixture was incubated for 15 min at 22° C. to allow pre-binding of the test compounds to the enzyme before the start of the kinase reaction. Then the kinase reaction was started by the addition of 3 μL of a solution of adenosine-tri-phosphate (ATP, 3.3 mM=>final conc. in the 5 μL assay volume is 2 mM) and substrate (0.1 μM=>final conc. in the 5 μL assay volume is 0.06 μM) in assay buffer and the resulting mixture was incubated for a reaction time of 30 min at 22° C. The concentration of MKNK1 was adjusted depending of the activity of the enzyme lot and was chosen appropriate to have the assay in the linear range, typical concentrations were in the range of 0.003 μg/mL. The reaction was stopped by the addition of 5 μL of a solution of TR-FRET detection reagents (5 nM streptavidine-XL665 [Cisbio Bioassays, Codolet, France] and 1 nM anti-ribosomal protein S6 (pSer236)-antibody from Invitrogen [#44921G] and 1 nM LANCE EU-W1024 labeled ProteinG [Perkin-Elmer, product no. AD0071]) in an aqueous EDTA-solution (100 mM EDTA, 0.1% (w/v) bovine serum albumin in 50 mM HEPES pH 7.5).
The resulting mixture was incubated for 1 h at 22° C. to allow the formation of complex between the phosphorylated biotinylated peptide and the detection reagents. Subsequently the amount of phosphorylated substrate was evaluated by measurement of the resonance energy transfer from the Eu-chelate to the streptavidine-XL. Therefore, the fluorescence emissions at 620 nm and 665 nm after excitation at 350 nm were measured in a TR-FRET reader, e.g. a Rubystar (BMG Labtechnologies, Offenburg, Germany) or a Viewlux (Perkin-Elmer). The ratio of the emissions at 665 nm and at […] was taken as the measure for the amount of phosphorylated substrate. The data were normalised (enzyme reaction without inhibitor=0% inhibition, all other assay components but no enzyme=100% inhibition).
`CCN(C)C(=O)[C@H]1CCc2c(sc3ncnc(Nc4cc5ccnn5cc4Cl)c23)C1` [Example 46, (7S)-4-[(6-Chloropyrazolo[1,5-a]pyridin-5-yl)amino]-N-ethyl-N-methyl-5,6,7,8-tetrahydro[1]benzothieno[2,3-d]pyrimidine-7-carboxamide]: the half-inhibitory concentration (IC50) turned out to be 11 nM.
For the molecule `CN(C)CCN(C)C1CCN(C(=O)[C@H]2CCc3c(sc4ncnc(Nc5ccn6nccc6c5)c34)C2)CC1` [Example 40, (4-{[2-(Dimethylamino)ethyl](methyl)amino}piperidin-1-yl)[(7S)-4-(pyrazolo[1,5-a]pyridin-5-ylamino)-5,6,7,8-tetrahydro[1]benzothieno[2,3-d]pyrimidin-7-yl]methanone], the half-inhibitory concentration (IC50) was 6 nM.
`COc1cn2nccc2cc1Nc1ncnc2sc3c(c12)CC[C@H](C(=O)N1C[C@@H]2C[C@H]1CO2)C3` [Example 123, (7S)-4-[(6-Methoxypyrazolo[1,5-a]pyridin-5-yl)amino]-5,6,7,8-tetrahydro[1]benzothieno[2,3-d]pyrimidin-7-yl[(1S,4S)-2-oxa-5-azabicyclo[2.2.1]hept-5-yl]methanone]: the IC50 was determined as 2 nM.
The same measure for `CN(CCO)C(=O)[C@H]1CCc2c(sc3ncnc(Nc4cc5ccnn5cc4Cl)c23)C1` [Example 55, (7S)-4-[(6-Chloropyrazolo[1,5-a]pyridin-5-yl)amino]-N-(2-hydroxyethyl)-N-methyl-5,6,7,8-tetrahydro[1]benzothieno[2,3-d]pyrimidine-7-carboxamide]: 18 nM; for `COc1cn2nccc2cc1Nc1ncnc2sc3c(c12)CC[C@H](C(=O)N1C[C@H](O)[C@@H](O)C1)C3` [Example 108, [(3S,4S)-3,4-Dihydroxypyrrolidin-1-yl](7S)-4-[(6-methoxypyrazolo[1,5-a]pyridin-5-yl)amino]-5,6,7,8-tetrahydro[1]benzothieno[2,3-d]pyrimidin-7-ylmethanone]: 1 nM.
As for `N#CC1CN(C(=O)[C@H]2CCc3c(sc4ncnc(Nc5cc6ccnn6cc5Cl)c34)C2)C1` [Example 50, 1-((7S)-4-[(6-Chloropyrazolo[1,5-a]pyridin-5-yl)amino]-5,6,7,8-tetrahydro[1]benzothieno[2,3-d]pyrimidin-7-ylcarbonyl)azetidine-3-carbonitrile], the figure is 7 nM.
As for `CCN(CCOC)C(=O)[C@H]1CCc2c(sc3ncnc(Nc4cc5ccnn5cc4OC)c23)C1` [Example 118, (7S)—N-Ethyl-N-(2-methoxyethyl)-4-[(6-methoxypyrazolo[1,5-a]pyridin-5-yl)amino]-5,6,7,8-tetrahydro[1]benzothieno[2,3-d]pyrimidine-7-carboxamide], the figure is 1 nM; as for `COc1cn2nccc2cc1Nc1ncnc2sc3c(c12)CC[C@H](C(=O)N1CCC(N(C)CCN(C)C)CC1)C3` [Example 110], less than 1 nM; as for `CCN(CCN(C)C)C(=O)[C@H]1CCc2c(sc3ncnc(Nc4cc5ccnn5cc4Cl)c23)C1` [Example 67, (7S)-4-[(6-Chloropyrazolo[1,5-a]pyridin-5-yl)amino]-N-[2-(dimethylamino)ethyl]-N-ethyl-3,5,6,7,8-tetrahydro[1]benzothieno[2,3-d]pyrimidine-7-carboxamide], 30 nM.
As to `O=C([C@H]1CCc2c(sc3ncnc(Nc4ccn5nccc5c4)c23)C1)N1C[C@@H]2C[C@H]1CO2` [Example 36, (1S,4S)-2-Oxa-5-azabicyclo[2.2.1]hept-5-yl[(7S)-4-(pyrazolo[1,5-a]pyridin-5-ylamino)-5,6,7,8-tetrahydro[1]benzothieno[2,3-d]pyrimidin-7-yl]methanone], the IC50 was determined as 91 nM.
The same measure for `COc1cn2nccc2cc1Nc1ncnc2sc3c(c12)CC[C@H](C(=O)NCC(C)(C)O)C3` [Example 81, (7S)—N-(2-Hydroxy-2-methylpropyl)-4-[(6-methoxypyrazolo[1,5-a]pyridin-5-yl)amino]-5,6,7,8-tetrahydro[1]benzothieno[2,3-d]pyrimidine-7-carboxamide]: 2 nM.
